Type in all cases: biochemical
The target of experiment [1] is T1, DHFR in CCRF-CEM human leukemia cells (Homo sapiens, UniProt P00374).
T1 construct: endogenous in cells; host or cells: CCRF-CEM
T1 sequence (P00374 1-187): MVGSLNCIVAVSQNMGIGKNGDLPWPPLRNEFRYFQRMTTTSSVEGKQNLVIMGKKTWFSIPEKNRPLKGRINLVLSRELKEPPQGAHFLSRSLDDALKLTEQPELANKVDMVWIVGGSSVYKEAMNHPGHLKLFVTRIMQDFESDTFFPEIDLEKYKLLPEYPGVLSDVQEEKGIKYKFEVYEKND
Description: DHFR enzyme inhibition assay. The following applies: DHFR from CCRF-CEM cells, pre-incubation with NADPH 3 minutes at 37° C.

The target of experiment [2] is T2, TS in CCRF-CEM human T-lymphoblastic leukemia cells (Homo sapiens, UniProt P04818).
T2 construct: endogenous in cells; host or cells: CCRF-CEM
Description: TS enzyme inhibition assay. The following applies: TS from CCRF-CEM cells, up to five graded concentrations; read-out: IC50 against TS. The method, then:
The inhibitory potency against TS in CCRF-CEM human T-lymphoblastic leukemia cells was assessed by introducing up to five graded concentrations of compounds into the reaction mixture, initiating the reaction by addition of TS, and quantitating remaining TS activity.

In experiment [3] the target is T3, GARFT (Homo sapiens, UniProt P22102).
T3 sequence (P22102 1-1010): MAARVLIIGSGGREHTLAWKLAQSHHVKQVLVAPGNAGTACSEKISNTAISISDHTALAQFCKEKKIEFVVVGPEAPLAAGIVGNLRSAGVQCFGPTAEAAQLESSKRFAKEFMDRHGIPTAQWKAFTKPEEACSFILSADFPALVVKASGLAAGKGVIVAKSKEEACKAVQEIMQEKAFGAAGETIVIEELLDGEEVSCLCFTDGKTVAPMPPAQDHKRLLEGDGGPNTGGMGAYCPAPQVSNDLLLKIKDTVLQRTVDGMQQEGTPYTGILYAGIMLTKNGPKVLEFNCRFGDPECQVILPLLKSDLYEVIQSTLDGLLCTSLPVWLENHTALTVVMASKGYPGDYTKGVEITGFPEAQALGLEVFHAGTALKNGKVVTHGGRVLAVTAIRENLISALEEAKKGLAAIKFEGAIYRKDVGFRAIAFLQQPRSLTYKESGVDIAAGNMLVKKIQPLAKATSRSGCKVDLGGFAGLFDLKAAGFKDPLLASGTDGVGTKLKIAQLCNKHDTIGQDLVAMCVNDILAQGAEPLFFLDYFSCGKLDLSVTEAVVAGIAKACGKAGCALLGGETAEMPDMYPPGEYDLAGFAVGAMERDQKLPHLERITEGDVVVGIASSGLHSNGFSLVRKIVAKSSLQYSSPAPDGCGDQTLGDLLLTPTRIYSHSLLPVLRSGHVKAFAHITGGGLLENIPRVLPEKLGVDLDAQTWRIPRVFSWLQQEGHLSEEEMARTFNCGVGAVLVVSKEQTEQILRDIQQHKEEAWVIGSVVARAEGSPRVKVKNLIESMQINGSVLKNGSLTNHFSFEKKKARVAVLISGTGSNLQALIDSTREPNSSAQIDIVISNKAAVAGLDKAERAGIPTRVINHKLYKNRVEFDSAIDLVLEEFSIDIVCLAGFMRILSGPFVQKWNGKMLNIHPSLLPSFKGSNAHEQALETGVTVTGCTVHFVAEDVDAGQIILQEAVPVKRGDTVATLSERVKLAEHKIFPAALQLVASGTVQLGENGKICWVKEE
Description: GARFT inhibition (similar tests). The note with it: read-out: IC50 against GARFT. From the text: (§1) The above data illustrates the selectivity of the novel antifolates in enzyme inhibition. […] As previously noted, such selectivity in activity can be useful for improving activity against specific conditions while avoiding undesirable side effects.

The target in experiment [4] is AICART (Homo sapiens, UniProt P31939). Description: AICART inhibition (similar tests). The following applies: read-out: IC50 against AICART.
Description: as §1

Here are results for three molecules from patent US7951812B2, “Substituted pyrrolo[2,3-d]pyrimidines as antifolates” (Chelsea Therapeutics, Inc., priority 2007, dated 2011).

Structures can show the parent of a compound that is named as a salt. Where only a bound is given, the exact number is not on record here.

T2 sequence (P04818 whole entry): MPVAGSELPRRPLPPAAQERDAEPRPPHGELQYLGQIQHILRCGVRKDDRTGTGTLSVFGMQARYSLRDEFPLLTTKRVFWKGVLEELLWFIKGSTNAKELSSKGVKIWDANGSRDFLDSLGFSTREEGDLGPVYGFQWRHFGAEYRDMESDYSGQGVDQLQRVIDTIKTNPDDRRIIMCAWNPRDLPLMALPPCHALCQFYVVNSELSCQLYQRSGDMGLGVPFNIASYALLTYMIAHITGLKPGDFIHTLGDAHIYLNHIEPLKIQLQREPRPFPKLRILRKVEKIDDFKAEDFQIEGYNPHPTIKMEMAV
Sequence of AICART (P31939 whole entry): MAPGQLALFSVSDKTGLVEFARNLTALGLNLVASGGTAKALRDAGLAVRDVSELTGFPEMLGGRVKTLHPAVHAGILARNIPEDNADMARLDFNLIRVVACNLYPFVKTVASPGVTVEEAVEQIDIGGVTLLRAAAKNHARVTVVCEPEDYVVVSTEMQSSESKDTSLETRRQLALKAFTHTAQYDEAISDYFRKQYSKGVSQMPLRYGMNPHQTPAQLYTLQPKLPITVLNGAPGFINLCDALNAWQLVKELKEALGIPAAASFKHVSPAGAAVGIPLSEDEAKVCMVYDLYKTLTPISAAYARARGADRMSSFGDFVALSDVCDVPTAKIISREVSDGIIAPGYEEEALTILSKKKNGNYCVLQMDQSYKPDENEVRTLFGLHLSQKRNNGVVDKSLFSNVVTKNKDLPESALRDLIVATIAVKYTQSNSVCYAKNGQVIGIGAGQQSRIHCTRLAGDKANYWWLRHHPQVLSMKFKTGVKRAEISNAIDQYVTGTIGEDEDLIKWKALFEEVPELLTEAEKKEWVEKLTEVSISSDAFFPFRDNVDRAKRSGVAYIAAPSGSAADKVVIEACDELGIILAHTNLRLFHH

Usually IC50 stands for the concentration at which inhibition is half-maximal. On to `C=C(CC(NC(=O)c1ccc(CCc2ccc3nc(N)nc(N)c3c2)cc1)C(=O)O)C(=O)O` (stereo not shown) [Mobiltrex, 2-{4-[2-(2,4-diamino-quinazolin-6-yl)-ethyl] -benzoylamino}-4-methylidene-pentanedioic acid, reference compound], for which the IC50 in experiment [1] was 1.1 nM; in experiment [2] it was 8000 nM.

`C=C(C[C@H](NC(=O)c1ccc(CCc2c[nH]c3nc(N)nc(N)c23)cc1)C(=O)O)C(=O)O` [CHL1007, (S)-N-{4-[2-(2,4-diamino-7H-pyrrolo[2,3-d]pyrimidin-5-yl)ethyl]benzoyl}-4-methylene-L-glutamic acid disodium salt] had an IC50 in experiment [1] of 5.2 nM.

As for `C=C(CC(NC(=O)c1ccc(CCc2c[nH]c3nc(N)nc(N)c23)cc1)C(=O)O)C(=O)O` (racemic) [CHL-003, N-{4-[2-(2,4-diamino-7H-pyrrolo[2,3-d]pyrimidin-5-yl)ethyl]benzoyl}-4-methylene-glutamic acid], the IC50 in experiment [1] is 12.5 nM; in experiment [3], over 50000 nM; in experiment [4], over 50000 nM; in experiment [2], over 50000 nM.
